Source: patent publication US8946234B2, “Halogen-substituted compounds” (Bayer CropScience AG, priority 2008, dated 2015)
Where two headings read alike, the source gives them in different places.

Assay: physchem
Format: physicochemical
Conditions: for chromatographic logP: read-out: logP
Experimental: ^a) Note regarding the determination of the log P values and mass detection: The log P values given were determined in accordance with EEC Directive 79/831 Annex V.A8 by HPLC (High Performance Liquid Chromatography) on a phase inversion column (C18). Agilent 1100 LC system; 50*4.6 Zorbax Eclipse Plus C18 1.8 micron; eluent A: acetonitrile (0.1% formic acid); eluent B: water (0.09% formic acid); linear gradient from 10% acetonitrile to 95% acetonitrile in 4.25 min, then 95% acetonitrile for a further 1.25 min; oven temperature 55° C.; flow: 2.0 ml/min. The mass detection is carried out via an Agilend MSD system.

[1] = HPLC phase inversion (reversed-phase) C18 column, HPLC method a), eluent acetonitrile/water with formic acid
[2] = HPLC phase inversion (reversed-phase) C18 column, HPLC on C18 phase inversion column, method a)

Structure (SMILES)	logP	chromatographic logP [1]	chromatographic logP [2]
Cn1nc(C(F)(F)C(F)(F)F)c(C(F)(F)F)c1C(=O)Nc1ccc(Cl)c(C(=O)NCC(F)(F)F)c1 [Ik-87]	3.67^a)		
Cn1nc(C(F)(F)C(F)(F)F)c(C(F)(F)F)c1C(=O)Nc1ccc(Cl)c(C(=O)NCCF)c1 [Ik-88]	3.21^a)		
CCSCC(C)NC(=O)c1cc(NC(=O)c2c(C(F)(F)F)c(C(F)(F)C(F)(F)F)nn2C)ccc1Cl (centres unmarked) [Ik-89]	4.09^a)		
CC(C)NC(=O)c1cc(NC(=O)c2c(C(F)(F)F)c(C(F)(F)C(F)(F)F)nn2C)ccc1Cl [Ik-90]	3.60^a)		
CCC(C)NC(=O)c1cc(NC(=O)c2c(C(F)(F)F)c(C(F)(F)C(F)(F)F)nn2C)ccc1Cl (centres unmarked) [Ik-91]	3.87^a)		
CC(C)CNC(=O)c1cc(NC(=O)c2c(C(F)(F)F)c(C(F)(F)C(F)(F)F)nn2C)ccc1Cl [Ik-92]	3.90^a)		
C=CCNC(=O)c1cc(NC(=O)c2c(C(F)(F)F)c(C(F)(F)C(F)(F)F)nn2C)ccc1Cl [Ik-93]	3.44^a)		
Cn1nc(C(F)(F)C(F)(F)F)c(C(F)(F)F)c1C(=O)Nc1cc(F)c(F)c(C(=O)NCc2ccccc2)c1 [Ik-97]	4.19^a)		
Cn1nc(C(F)(F)C(F)(F)F)c(I)c1C(=O)Nc1ccc(Cl)c(C(=O)NCC(F)(F)F)c1 [Ik-99]	3.52^a)		
CC(C)(F)n1nc(C(F)C(F)(F)F)c(C(F)(F)F)c1C(=O)Nc1ccc(Cl)c(C(=O)NC2CC2)c1 (centres unmarked) [Ik-100]	3.39^a)		
CCOC(=O)c1cc(NC(=O)c2c(C(F)(F)F)c(C(F)(F)C(F)(F)F)nn2C)ccc1Cl [Ik-103]	4.42^a)		
Cn1nc(C(F)(F)C(F)(F)F)c(C(F)(F)F)c1C(=O)Nc1ccc(OC(F)F)c(C(=O)O)c1 [Ik-104]	3.23^a)		
Cn1nc(C(F)(F)C(F)(F)F)c(C(F)(F)F)c1C(=O)Nc1cc2c(cc1F)COC2=O [Ik-105]	3.27^a)		
Cn1nc(C(F)(F)C(F)(F)F)c(C(F)(F)F)c1C(=O)Nc1ccc2c(c1)C(=O)OC2 [Ik-106]	3.20^a)		
COC(=O)COC(=O)c1cc(NC(=O)c2c(C(F)(F)F)c(C(F)(F)C(F)(F)F)nn2C)ccc1Cl [Ik-107]	4.03^a)		
CN(C)C(=O)COC(=O)c1cc(NC(=O)c2c(C(F)(F)F)c(C(F)(F)C(F)(F)F)nn2C)ccc1Cl [Ik-108]	3.57^a)		
CCN(CC)C(=O)COC(=O)c1cc(NC(=O)c2c(C(F)(F)F)c(C(F)(F)C(F)(F)F)nn2C)ccc1Cl [Ik-109]	4.11^a)		
Cn1nc(C(F)(F)C(F)(F)F)c(C(F)(F)F)c1C(=O)Nc1ccc(Cl)c(C(=O)OCC(=O)NC(N)=O)c1 [Ik-110]	3.10^a)		
Cn1nc(C(F)(F)C(F)(F)F)c(C(F)(F)F)c1C(=O)Nc1ccc(Cl)c(C(=O)OCC(=O)NCO)c1 [Ik-115]	2.93^a)		
Cn1nc(C(F)(F)OC(F)(F)C(F)(F)OC(F)(F)F)c(Br)c1C(=O)Nc1ccc(Cl)c(C(=O)NC2CC2)c1 [Ik-117]	4.31^a)		
O=C(NCC(F)(F)F)c1cc(NC(=O)c2[nH]nc(C(F)(F)C(F)(F)F)c2C(F)(F)F)ccc1Cl [Ik-124, N-{4-Chloro-3-[(2,2,2-trifluoroethyl)carbamoyl]phenyl}-3-(pentafluoroethyl)-4-(trifluoromethyl)-1H-pyrazole-5-carboxamide]		3.26	3.26
Cn1nc(C(F)(F)F)c(C(F)(F)F)c1C(=O)Nc1ccc(Cl)c(C(=O)NCC(F)(F)F)c1 [Ik-125, N-{4-Chloro-3-[(2,2,2-trifluoroethyl)carbamoyl]-phenyl}-1-methyl-3,4-bis(trifluoromethyl)-1H-pyrazole-5-carboxamide]		3.25	3.25
Cn1nc(OC(F)F)c(C(F)(F)F)c1C(=O)Nc1ccc(Cl)c(C(=O)NCC(F)(F)F)c1 [Ik-126, N-{4-Chloro-3-[(2,2,2-trifluoroethyl)carbamoyl]phenyl}-3-(difluoromethoxy)-1-methyl-4-(trifluoromethyl)-1H-pyrazole-5-carboxamide]		3.01	3.01
Cn1nc(C(F)(F)C(F)(F)F)c(C(F)(F)F)c1C(=O)Nc1ccc(Br)c(C(=O)N[C@@H]2C[C@@H]2F)n1 [Ik-127, N-{3-Bromo[2-(1R,2S)-2-fluorocycloprop-1-ylcarbamoyl]pyrid-6-yl}-1-methyl-3-(pentafluoroethyl)-4-(trifluoromethyl)-1H-pyrazole-5-carboxamide]		3.29	3.29
Cn1nc(C(F)(F)C(F)(F)F)c(C(F)(F)F)c1C(=O)Nc1cc(C(=O)N[C@@H]2C[C@@H]2F)c(Br)cn1 [Ik-128, 5-Bromo-N-[(1R,2S)-2-fluorocyclopropyl]-2-({[1-methyl-3-(pentafluoroethyl)-4-(trifluoromethyl)-1H-pyrazol-5-yl]carbonyl}amino)isonicotinamide]		3.19	3.19
Cn1nc(C(F)(F)C(F)(F)F)c(C(F)(F)F)c1C(=O)Nc1cc(C(=O)O)c(Cl)cn1 [Ik-129, 5-Chloro-2-({[1-methyl-3-(pentafluoroethyl)-4-(trifluoromethyl)-1H-pyrazol-5-yl]carbonyl}amino)isonicotinic acid]		2.82	2.82
Cn1nc(C(F)(F)C(F)(F)F)c(C(F)(F)F)c1C(=O)Nc1ccnc(C(=O)NC2CC2(F)F)c1 (centres unmarked) [Ik-130, N-[2-(2,2-Difluorocycloprop-1-ylcarbamoyl)pyrid-4-yl]-1-methyl-3-(pentafluoroethyl)-4-(trifluoromethyl)-1H-pyrazole-5-carboxamide]		3.59	3.59

Structure (SMILES)	logP	chromatographic logP [1]	chromatographic logP [2]
Cn1nc(C(F)(F)C(F)(F)F)c(C(F)(F)F)c1C(=O)Nc1cnc(Cl)c(C(=O)O)c1 [Ik-131, 2-Chloro-5-({[1-methyl-3-(pentafluoroethyl)-4-(trifluoromethyl)-1H-pyrazol-5-yl]carbonyl}amino)nicotinic acid]		2.27	2.77
CN(C(=O)c1c(C(F)(F)F)c(C(F)(F)C(F)(F)F)nn1C)c1ccc(Cl)c(C(=O)NC2CC2)c1 [Ik-132]	3.30^a)		
CN(C(=O)c1c(C(F)(F)F)c(C(F)(F)C(F)(F)F)nn1C)c1ccc(Cl)c(C(=O)NCC(F)(F)F)c1 [Ik-133]	3.66^a)		
CN(C(=O)c1c(C(F)(F)F)c(C(F)(F)C(F)(F)F)nn1C)c1ccc(Cl)c(C(=O)NCc2ccccc2)c1 [Ik-134]	3.94^a)		
COCN(C(=O)c1c(C(F)(F)F)c(C(F)(F)C(F)(F)F)nn1C)c1ccc(Cl)c(C(=O)NC2CC2)c1 [Ik-135]	3.51^a)		
CCN(C(=O)c1c(C(F)(F)F)c(C(F)(F)C(F)(F)F)nn1C)c1ccc(Cl)c(C(=O)NC2CC2)c1 [Ik-136]	3.55^a)		
CC(C)N(C(=O)c1c(C(F)(F)F)c(C(F)(F)C(F)(F)F)nn1C)c1ccc(Cl)c(C(=O)NC2CC2)c1 [Ik-137]	3.74^a)		
CCN(C(=O)c1c(C(F)(F)F)c(C(F)(F)C(F)(F)F)nn1C)c1ccc(Cl)c(C(=O)NCC(F)(F)F)c1 [Ik-138]	3.81^a)		
CC(C)N(C(=O)c1c(C(F)(F)F)c(C(F)(F)C(F)(F)F)nn1C)c1ccc(Cl)c(C(=O)NCC(F)(F)F)c1 [Ik-139]	4.02^a)		
Cn1nc(C(F)(F)C(F)(F)F)c(C(F)(F)F)c1C(=O)Nc1cc(F)c(F)c(C(=O)NC2CC2)c1 [Ik-140]	3.60^a)		
Cn1nc(C(F)(F)C(F)(F)F)c(C(F)(F)F)c1C(=O)Nc1cc(F)c(F)c(C(=O)NCC(F)(F)F)c1 [Ik-141]	3.89^a)		
Cn1nc(C(F)(F)C(F)(F)F)c(C(F)(F)F)c1C(=O)Nc1cc(C(=O)NCc2ccccc2)c(Cl)cc1F [Ik-142]	4.00^a)		
Cn1nc(C(F)(F)C(F)(F)F)c(C(F)(F)F)c1C(=O)Nc1cc(C(=O)NC2CC2)c(Cl)cc1F [Ik-143]	3.39^a)		
Cn1nc(C(F)(F)C(F)(F)F)c(C(F)(F)F)c1C(=O)Nc1cc(C(=O)NCC(F)(F)F)c(Cl)cc1F [Ik-144]	3.73^a)		
Cn1nc(C(F)(F)C(F)(F)F)c(C(F)(F)F)c1C(=O)Nc1cc(C(=O)NC2CC2)c(F)cc1F [Ik-145]	3.32^a)		
Cn1nc(C(F)(F)C(F)(F)F)c(C(F)(F)F)c1C(=O)Nc1cc(C(=O)NCC(F)(F)F)c(F)cc1F [Ik-146]	3.64^a)		
Cn1nc(C(F)(F)C(F)(F)F)c(C(F)(F)F)c1C(=O)Nc1cc(C(=O)NC2CC2)c(Cl)cc1Cl [Ik-147]	3.61^a)		
Cn1nc(C(F)(F)C(F)(F)F)c(C(F)(F)F)c1C(=O)Nc1cc(C(=O)NC2CC2)c(F)cc1Cl [Ik-148]	3.53^a)		
Cn1nc(C(F)(F)C(F)(F)F)c(C(F)(F)F)c1C(=O)Nc1ccc(Cl)c(C(=O)NCc2ccccc2)c1Cl [Ik-149]	4.33^a)		
Cn1nc(C(F)(F)C(F)(F)F)c(C(F)(F)F)c1C(=O)Nc1cc(C(=O)NCc2ccccc2)c(Cl)cc1Cl [Ik-150]	4.23^a)		
Cn1nc(C(F)(F)C(F)(F)F)c(C(F)(F)F)c1C(=O)Nc1cc(C(=O)NCC(F)(F)F)c(F)cc1Cl [Ik-151]	3.83^a)		
CC(NC(=O)c1cc(NC(=O)c2c(Cl)c(C(F)(F)F)nn2C)ccc1Cl)C(F)(F)F (centres unmarked) [Ik-152]	3.44^a)		
Cn1nc(C(F)(F)F)c(Cl)c1C(=O)Nc1ccc(Cl)c(C(=O)NC2CC2F)c1 (centres unmarked) [Ik-153]	2.86^a)		
Cn1nc(C(F)(F)F)c(Cl)c1C(=O)Nc1ccc(Cl)c(C(=O)NCC(F)(F)F)c1 [Ik-154]	3.20^a)		
Cn1nc(C(F)(F)C(F)(F)F)c(C(F)(F)F)c1C(=O)Nc1ccc(F)c(C(=O)NC2CC2)c1 [Ik-155]	3.31^a)		
Cn1nc(C(F)(F)C(F)(F)F)c(C(F)(F)F)c1C(=O)Nc1ccc(F)c(C(=O)NCC(F)(F)F)c1 [Ik-156]	3.66^a)		
Cn1nc(C(F)(F)C(F)(F)F)c(C(F)(F)F)c1C(=O)Nc1ccc(F)c(C(=O)NCc2ccccc2)c1 [Ik-157]	3.95^a)		
